In patent US4822907A, “Method for recovering α-L-aspartyl-L-phenylalanine methyl ester” (Ajinomoto Co., Inc., priority 1986, dated 1989):
Where two headings read alike, the source gives them in different places. Residues, ends and D or L forms follow the SMILES beside them.

Assays:
[1] = Desalting and concentration of raw solution on spiral polyamide reverse osmosis membranes; inhibition rate of each component (Example 1, Table 1); format: physicochemical; settings: for Inhibition Rate: 40 kg/cm^2
Method: Desalting and concentration were performed, while cyclizing and mixing a non-permeation solution to and with the raw solution.
From the composition of the permeation liquid exhausted in this case, the inhibition rate of each component was calculated according to the following equation. [formula]
Analysis method: liquid chromatography (α-A(M)PM, α-APM, α-AP), (Cl^-).

[2] = Desalting and concentration of neutralized mother liquor on flat reverse osmosis membrane; residual rate (Example 2, Table 2); format: physicochemical; settings: pH 5.2, 25°, 40 kg/cm^2 G
Method: Next, water was added until the volume became the original volume. Further by repeating similar operation, the system was desalted and concentrated until the volume became half of the original volume.

[3] = Permeability of valuable matters through reverse osmosis membranes (general findings); settings: in words; for permeability of valuable matters: reverse osmosis membrane having NaCl inhibition rate of approximately 30% or more
[4] = not told
[5] = cited from earlier work
[6] = membrane NaCl inhibition rate 15% (control), immediately after permeation started, pH 4.54, 20° C.
[7] = membrane NaCl inhibition rate 15% (control), when concentrated to 2.5 times, 20° C.
[8] = membrane NaCl inhibition rate 30%, immediately after permeation started, pH 4.54, 20° C.
[9] = membrane NaCl inhibition rate 30%, when concentrated to 2.5 times, 20° C.
[10] = membrane NaCl inhibition rate 60%, immediately after permeation started, pH 4.54, 20° C.
[11] = membrane NaCl inhibition rate 60%, when concentrated to 2.5 times, 20° C.
[12] = membrane NaCl inhibition rate 80%, immediately after permeation started, pH 4.54, 20° C.
[13] = membrane NaCl inhibition rate 80%, when concentrated to 2.5 times, 20° C.
[14] = Polyamide Type (A), NaCl inhibition rate 50%
[15] = Polysulfone Type (B), NaCl inhibition rate 25%, comparison

SMILES	Inhibition Rate [1, 6]	Inhibition Rate [1, 7]	Inhibition Rate [1, 8]	Inhibition Rate [1, 9]	Inhibition Rate [1, 10]	Inhibition Rate [1, 11]	Inhibition Rate [1, 12]	Inhibition Rate [1, 13]	Residual Rate [2, 14]	Residual Rate [2, 15]	permeability for reverse osmosis membranes [3]	permeability of valuable matters [3]	permeability for reverse osmosis membranes [4]	permeability of valuable matters [4]	stability in aqueous solution ([5]; high temperatures or acidic media)	stability in aqueous solution ([5]; temperatures lower than normal ambient temperatures)	permeability through membrane ([1]; in words, conclusion of Example 1)
N[C@@H](CC(=O)O)C(=O)N[C@@H](Cc1ccccc1)C(=O)O [α-AP, α-L-aspartyl-L-phenylalanine] (H-Asp-Phe-OH)	81.5%	85.6%	98.8%	98.3%	99.5%	99.7%	99.7%	99.9%	98.7%	68.9%	low permeability	low	–	–	–	–	–
COC(=O)[C@H](Cc1ccccc1)NC(=O)[C@@H](N)CC(=O)O [α-APM, α-L-aspartyl-L-phenylalanine methyl ester] (H-Asp-Phe-OMe)	74.1%	79.2%	96.2%	97.7%	99.1%	99.3%	99.0%	99.6%	98.0%	60.8%	–	–	low permeability	low	readily undergoes various undesirable reactions	relatively stable	–
COC(=O)C[C@H](N)C(=O)N[C@@H](Cc1ccccc1)C(=O)OC [α-A(M)PM, methyl ester of the L-aspartic acid β-carboxyl residue of α-L-aspartyl-L-phenylalanine methyl ester] (H-Asp(OMe)-Phe-OMe)	56.7%	59.3%	82.7%	84.1%	91.0%	92.2%	93.1%	93.9%	80.3%	48.2%	especially high permeability	low	–	–	–	–	specifically readily permeable
COC(=O)C[C@H](N)C(=O)N[C@@H](Cc1ccccc1)C(=O)O [α-A(M)P, methyl ester at the L-aspartic acid β-carboxy residue of α-L-aspartyl-L-phenylalanine] (H-Asp(OMe)-Phe-OH)	–	–	–	–	–	–	–	–	97.8%	60.8%	low permeability	low	–	–	–	–	–
Cl.N [NH4 Cl]	–	–	–	–	–	–	–	–	50.4%	32.5%	–	–	–	–	–	–	–
[Cl-].[Na+] [NaCl, sodium chloride]	11.0%	9.3%	23.5%	19.4%	60.3%	56.5%	85.6%	82.3%	–	–	–	–	–	–	–	–	–
